The numbers were not newly measured in patent US20060172006A1, “Sustained-release tramadol formulations with 24-hour clinical efficacy” (priority 2003, published 2006), which cites them from elsewhere.

Where a name gives a salt, the structure may show the parent alone.

The conditions of this data set: human, in vivo.

Regarding `COc1cccc(C2(O)CCCCC2CN(C)C)c1` (stereo not shown) [tramadol HCl, Tramadol hydrochloride], the “Estimated incidence of seizures in patients” value is on record as “less than 1%”.
